For assay [1], the system named is clinically separated clarithromycin-resistant strains and amoxicillin-insensitive strains of Helicobacter pylori. The assay can be described thus: Antibacterial potency (MIC) against clarithromycin-resistant and amoxicillin-insensitive strains, Pharmacological Test Example 3. The format is cell-based. How it is done: A test was conducted on the antibacterial potency of the compounds of the present invention against the clarithromycin-resistant strains and amoxicillin-insensitive strains of the bacterium Helicobacter pylori.
A test was conducted on the antibacterial potency of the compounds of the present invention, using clinically separated clarithromycin-resistant strains and amoxicillin-insensitive strains of the bacterium Helicobacter pylori. For the respective strains, in vitro tests were performed in Columbia agar medium. Each of the specimens was dissolved in a 1% DMSO solution. The bacteria were cultured at 37° C. and pH 7.0 for 3 days, and on the 4th day, the minimum growth inhibitory concentration (MIC, μg/ml) was determined.

Assay [2] has as its system Staphylococcus aureus, MRSA (ATCC 33591). Description: Antibacterial test (MIC), Gram-positive bacteria. The class given is cell-based. The source says: (§1) As for the Gram-negative bacteria, E. coli (ATCC 10536, ATCC 25922), Klebsiella pneumonia (ATCC 10031), Proteus vulgaris (ATCC 13315), Pseudomonas aeruginosa (ATCC 9027), and Salmonella typhimurium (ATCC 13311) were used, and as for the Gram-positive bacteria, Staphylococcus aureus, MRSA (ATCC 33591), Staphylococcus epidermidis (ATCC 12228), Streptococcus pneumonia (ATCC 6301), Mycobacterium ranae (ATCC 110), and Enterococcus faecalis (VRE, ATCC 51575) were used. The various bacteria were cultured at 37° C. for 20 to 48 hours by conventional methods, and the minimum growth inhibitory concentration (MIC, μg/ml) was determined. Each of the specimens was dissolved in a 1% DMSO solution. Furthermore, amoxicillin, clarithromycin and gentamycin were used as control drugs of antibacterial substance.

The subject of assay [3] is Enterococcus faecalis (VRE, ATCC 51575). The assay can be described thus: Antibacterial test (MIC), Gram-positive bacteria. The format is cell-based.
Description: as §1

Assay [4] concerns Streptococcus pneumonia (ATCC 6301). The assay can be described thus: Antibacterial test (MIC), Gram-positive bacteria. The class given is cell-based. The settings on record: Streptococcus pneumoniae, ATCC6301.
Description: as §1

Assay [5] relates to Pseudomonas aeruginosa (ATCC 9027). The assay can be described thus: Antibacterial test (MIC), Gram-negative bacteria. The class given is cell-based.
Description: as §1

Assay [6] relates to Salmonella typhimurium (ATCC 13311). Description: Antibacterial test (MIC), Gram-negative bacteria. The class given is cell-based.
Description: as §1

The subject of assay [7] is Escherichia coli (ATCC 25922). The assay can be described thus: Antibacterial test (MIC), Gram-negative bacteria. The format is cell-based.
Description: as §1

For assay [8], the system named is Proteus vulgaris (ATCC 13315). The assay can be described thus: Antibacterial test (MIC), Gram-negative bacteria. The format is cell-based.
Description: as §1

Assay [9] deals with Escherichia coli (ATCC 10536). Description: Antibacterial test (MIC), Gram-negative bacteria. The class given is cell-based.
Description: as §1

For assay [10], the system named is Helicobacter pylori bacteria (ATCC 43504). Description: Antiulcer action and bacteria eradicating action in Helicobacter pylori-infected Mongolian gerbils. The class given is in vivo. The note with it: for Number of Bacteria (average) (log CFU): gastric mucosa. How it is done:
Mongolian gerbils were experimentally infected with Helicobacter pylori bacteria, and the antiulcer action and the Helicobacter pylori bacteria eradicating action of the compounds of the present invention were tested.
Male Mongolian gerbils (30 to 40 g), five animals in each group, were orally inoculated with Helicobacter pylori bacteria (ATCC 43504) at 1.6×10^7 CFU/0.5 ml/mouse, and bred for one week, and then drug was administered two times a day for two weeks. Thereafter, the […] were bred for three weeks, and then the rats were fasted for 18 hours and subjected to abdominal section, followed by autopsy. The severity of gastric ulcer, the number of Helicobacter pylori bacteria in the gastric mucosa, and the antibody titer were measured.

For assay [11], the system named is Helicobacter pylori standard strains ATCC 43504, ATCC 43629, ATCC 43570 and clinically separated strains. Description: Anti-Helicobacter pylori activity (MIC), standard and clinically separated strains, Pharmacological Test Example 2. The class given is cell-based. How it is done: For the bacterium Helicobacter pylori, standard strains ATCC 43504, ATCC 43629 and ATCC 43570 were used to perform in vitro tests in Columbia agar medium. The bacteria were cultured at 37° C. and pH 7.0 for 3 days. On the 4th day, the minimum growth inhibitory concentration (MIC, μg/ml) was determined. Each of the specimens was dissolved in a 1% DMSO solution. Furthermore, amoxicillin and clarithromycin were used as control drugs of antibacterial substance. Further, the compound described in the article of Thomas C. Kuehler (J. Med.

The subject of assay [12] is Staphylococcus epidermidis (ATCC 12228). The assay can be described thus: Antibacterial test (MIC), Gram-positive bacteria. The class given is cell-based.
Description: as §1

For assay [13], the system named is Mycobacterium ranae (ATCC 110). The assay can be described thus: Antibacterial test (MIC), Gram-positive bacteria. The format is cell-based.
Description: as §1

The subject of assay [14] is Klebsiella pneumonia (ATCC 10031). The assay can be described thus: Antibacterial test (MIC), Gram-negative bacteria. The class given is cell-based.
Description: as §1

Where [15] appears, read: Helicobacter pylori, AMO-insensitive strain NO. 4, read-out: MIC.
Where [16] appears, read: Helicobacter pylori, CAM-resistant strain NO. 1, read-out: MIC.
Setting [17] is: Helicobacter pylori, CAM-resistant strain NO. 2, read-out: MIC.
[18] abbreviates: Helicobacter pylori, CAM-resistant strain NO. 3, read-out: MIC.
[19] abbreviates: Helicobacter pylori, CAM-resistant strain NO. 4, read-out: MIC.
The mark [20] stands for this setting: Salmonella enterica, read-out: MIC.
The mark [21] stands for this setting: Clinically separated strain PT1045482.
[22] abbreviates: Clinically separated strain PT1045483.
Setting [23] is: Clinically separated strain PT1045484.

Here are results for 3 molecules from US8778975B2, “Helicobacter pylori eradicating agent having inhibitory activity on gastric acid secretion” (Link Geonomics, Inc., priority 2006, dated 2014).

Values after ≈ are worked out from the molar mass of the structure shown. Like-named read-outs stand apart in the source and are kept apart here.

Broadly, the MIC is the lowest concentration that inhibits growth of the organism.

Regarding `CC1(C)S[C@@H]2[C@H](NC(=O)[C@H](N)c3ccc(O)cc3)C(=O)N2[C@H]1C(=O)O` [AMPC, Amoxicillin], the MIC was 0.25 µg/mL (≈ 0.684 µM) in [1] (AMO-insensitive strain NO. 2); 0.25 µg/mL (≈ 0.684 µM) in assay [1] (AMO-insensitive strain NO. 3); 0.25 µg/mL (≈ 0.684 µM) in assay [1] (Helicobacter pylori); 0.12 µg/mL (≈ 0.328 µM) in [1] (setting [15]); less than 0.015 µg/mL in assay [1] (setting [16]); less than 0.015 µg/mL in assay [1] (setting [17]). In addition, the MIC in assay [1] (setting [18]) is less than 0.015 µg/mL; in assay [1] (setting [19]) it was less than 0.015 µg/mL; in assay [2] (read-out: MIC) it was 0.1 µg/mL (≈ 0.274 µM); in assay [3], 0.3 µg/mL (≈ 0.821 µM); in [4], 0.01 µg/mL (≈ 0.0274 µM); in assay [5] (ATCC9027, read-out: MIC) it was greater than 100 µg/mL. For the same molecule, the minimum inhibitory concentration (MIC) in assay [6] (setting [20]) is 0.3 µg/mL (≈ 0.821 µM); in assay [7] (ATCC25922, read-out: MIC), 6.25 µg/mL (≈ 17.1 µM); in assay [8] (ATCC13315, read-out: MIC), 6.25 µg/mL (≈ 17.1 µM); in assay [9] (ATCC10536, read-out: MIC), 6.25 µg/mL (≈ 17.1 µM); in assay [11] (setting [21]), 0.06 µg/mL (≈ 0.164 µM); in assay [11] (setting [22]), 0.06 µg/mL (≈ 0.164 µM). Further, the minimum inhibitory concentration (MIC) in [11] (setting [23]) was 0.06 µg/mL (≈ 0.164 µM); in assay [11] (Standard strain ATCC 43504) it was 0.06 µg/mL (≈ 0.164 µM); in assay [11] (Standard strain ATCC 43570) it was less than 0.015 µg/mL; in assay [11] (Standard strain ATCC 43629), 0.06 µg/mL (≈ 0.164 µM). Moreover, in assay [10] (10 mg/kg), the “Antibody titer (average)” value is 0.40. Further, the “Number of Bacteria (average) (log CFU)” value in [10] (10 mg/kg) came to 5.0 log CFU. Besides, the “Number of Ulcers discovered” value in assay [10] (10 mg/kg, two times a day for two weeks) is recorded as 4/5. Further, in assay [10] (Helicobacter pylori, ATCC43504, 336 h, 10 mg/kg, two times a day for two weeks, read-out: Eradication rate (%)), the responders at 10 mg/kg was determined as 20%.
In the case of Gentamycin [GEM], the minimal inhibitory concentration (MIC) came to 0.1 µg/mL in assay [12]; 1.0 µg/mL in assay [2]; 0.3 µg/mL in [13]; 0.3 µg/mL in assay [5]; 1.0 µg/mL in [6]; 1.0 µg/mL in [7]. Also, the values for the minimal inhibitory concentration (MIC) in assay [8], in [14] and in [9] were 0.3 µg/mL, 1.0 µg/mL and 0.3 µg/mL, respectively.
As for `CC[C@H]1OC(=O)[C@H](C)[C@@H](O[C@H]2C[C@@](C)(OC)[C@@H](O)[C@H](C)O2)[C@H](C)[C@@H](O[C@@H]2O[C@H](C)C[C@H](N(C)C)[C@H]2O)[C@](C)(OC)C[C@@H](C)C(=O)[C@H](C)[C@@H](O)[C@]1(C)O` [CAM, Clarithromycin], the MIC turned out to be 0.06 µg/mL (≈ 0.0802 µM) in assay [1] (Helicobacter pylori, AMO-insensitive strain NO. 1, read-out: MIC); 0.03 µg/mL (≈ 0.0401 µM) in assay [1] (Helicobacter pylori, AMO-insensitive strain NO. 2, read-out: MIC); 0.06 µg/mL (≈ 0.0802 µM) in assay [1] (Helicobacter pylori, AMO-insensitive strain NO. 3, read-out: MIC); 0.03 µg/mL (≈ 0.0401 µM) in assay [1] (setting [15]); 32 µg/mL (≈ 42.8 µM) in [1] (setting [16]); 8 µg/mL (≈ 10.7 µM) in assay [1] (setting [17]). For the same molecule, the MIC in [1] (setting [18]) is 64 µg/mL (≈ 85.6 µM); in [1] (setting [19]), 32 µg/mL (≈ 42.8 µM); in assay [2] (read-out: MIC), 0.1 µg/mL (≈ 0.134 µM); in assay [3] it was 0.1 µg/mL (≈ 0.134 µM); in assay [4], 0.02 µg/mL (≈ 0.0267 µM); in [5] (ATCC9027, read-out: MIC), greater than 100 µg/mL. Also, the minimal inhibitory concentration (MIC) is 25 µg/mL (≈ 33.4 µM) in assay [6] (setting [20]); 50 µg/mL (≈ 66.8 µM) in assay [7] (ATCC25922, read-out: MIC); 100 µg/mL (≈ 134 µM) in [8] (ATCC13315, read-out: MIC); 50 µg/mL (≈ 66.8 µM) in assay [9] (ATCC10536, read-out: MIC); 0.3 µg/mL (≈ 0.401 µM) in assay [11] (setting [21]); 0.3 µg/mL (≈ 0.401 µM) in assay [11] (setting [22]). Besides, the minimum inhibitory concentration (MIC) in assay [11] (setting [23]) is 0.3 µg/mL (≈ 0.401 µM); in assay [11] (Standard strain ATCC 43504), 0.1 µg/mL (≈ 0.134 µM); in assay [11] (Standard strain ATCC 43570), less than 0.015 µg/mL; in assay [11] (Standard strain ATCC 43629), 0.1 µg/mL (≈ 0.134 µM). Also, the “Antibody titer (average)” value in [10] (30 mg/kg) was determined as 0.35. Besides, the “Number of Bacteria (average) (log CFU)” value in assay [10] (30 mg/kg) stood at 5.2 log CFU. The “Number of Ulcers discovered” value in [10] (30 mg/kg, two times a day for two weeks) is reported as 4/5. Moreover, the responders at 30 mg/kg in [10] (Helicobacter pylori, ATCC43504, 336 h, 30 mg/kg, two times a day for two weeks, read-out: Eradication rate (%)) came out at 20%.
